Results published in the NIST ThermoML archive (doi:10.1016/j.jct.2006.05.008).

Assay: molar heat capacity at constant pressure; wn = mass fraction of the nth substance listed
Settings: Small (less than 1 g) adiabatic calorimetry

CCCCn1cc[n+](C)c1.[Br-] [1-butyl-3-methylimidazolium bromide] + O
Crystal
Settings | molar heat capacity at constant pressure [J/K/mol]
257.1 K, w2 = 0.0169 | 211.52
257.12 K, w2 = 0.00482 | 207.32
257.24 K, w2 = 0.0495 | 210.08
257.33 K, w2 = 0.0051 | 208.6
257.89 K, w2 = 0.00482 | 208.45
258.27 K, w2 = 0.0051 | 209.35
258.32 K, w2 = 0.00482 | 208.23
258.68 K, w2 = 0.00482 | 208.41
258.78 K, w2 = 0.0169 | 213.4
259.16 K, w2 = 0.0169 | 213.8
259.51 K, w2 = 0.0495 | 213.48
259.61 K, w2 = 0.0051 | 210.47
259.93 K, w2 = 0.0051 | 210.82
259.98 K, w2 = 0.00482 | 210.49
260.24 K, w2 = 0.00482 | 209.97
260.65 K, w2 = 0.00482 | 210.2
260.87 K, w2 = 0.0169 | 215.76
260.94 K, w2 = 0.0051 | 211.8
261.22 K, w2 = 0.0169 | 216.33
261.77 K, w2 = 0.0495 | 217.08
262.06 K, w2 = 0.00482 | 211.93
262.28 K, w2 = 0.0051 | 212.88
262.52 K, w2 = 0.0051 | 213.06
262.95 K, w2 = 0.0169 | 218.39
262.98 K, w2 = 0.00482 | 212.09
263.28 K, w2 = 0.0169 | 218.78
263.78 K, w2 = 0.0051 | 214.35
264.01 K, w2 = 0.0495 | 220.81
264.14 K, w2 = 0.00482 | 213.82
265.04 K, w2 = 0.0169 | 221.03
265.12 K, w2 = 0.0051 | 215.36
265.24 K, w2 = 0.0051 | 215.65
265.32 K, w2 = 0.00482 | 214.05
265.34 K, w2 = 0.0169 | 221.47
266.23 K, w2 = 0.0495 | 224.56
266.24 K, w2 = 0.00482 | 216.31
266.58 K, w2 = 0.0051 | 216.86
267.13 K, w2 = 0.0169 | 223.7
267.4 K, w2 = 0.0169 | 224.14
267.66 K, w2 = 0.00482 | 216.04
267.71 K, w2 = 0.0051 | 217.69
268.43 K, w2 = 0.0495 | 228.48
269.22 K, w2 = 0.0169 | 226.58
269.45 K, w2 = 0.0169 | 226.98
270 K, w2 = 0.00482 | 218.06
270.31 K, w2 = 0.0051 | 220.13
270.61 K, w2 = 0.0495 | 232.41
271.3 K, w2 = 0.0169 | 229.49
271.51 K, w2 = 0.0169 | 229.82
272.34 K, w2 = 0.00482 | 220.16
272.91 K, w2 = 0.0051 | 222.62
273.18 K, w2 = 0.0495 | 242
273.57 K, w2 = 0.0169 | 232.77
275.36 K, w2 = 0.00482 | 223.11
275.51 K, w2 = 0.0051 | 225.17
275.62 K, w2 = 0.0169 | 235.94
276.24 K, w2 = 0.0495 | 247.28
277.2 K, w2 = 0.00482 | 225.01
278.11 K, w2 = 0.0051 | 227.74
279.23 K, w2 = 0.0169 | 242.23
279.26 K, w2 = 0.0495 | 254.65
279.32 K, w2 = 0.00482 | 227.27
279.78 K, w2 = 0.00482 | 229.54
280.71 K, w2 = 0.0051 | 230.48
281.42 K, w2 = 0.00482 | 229.46
282.24 K, w2 = 0.0495 | 262.55
283.31 K, w2 = 0.0051 | 233.23
283.5 K, w2 = 0.00482 | 230.68
284.39 K, w2 = 0.0169 | 251.43
285.17 K, w2 = 0.0495 | 271.18
285.58 K, w2 = 0.00482 | 233.7
285.91 K, w2 = 0.0051 | 236.24
287.66 K, w2 = 0.00482 | 235.67
288.14 K, w2 = 0.0495 | 280.22
288.51 K, w2 = 0.0051 | 239.25
289.53 K, w2 = 0.0169 | 262.01
289.74 K, w2 = 0.00482 | 238.04
290.97 K, w2 = 0.0495 | 290.4
291.11 K, w2 = 0.0051 | 242.54
291.83 K, w2 = 0.00482 | 240.73
293.7 K, w2 = 0.0051 | 246.11
293.74 K, w2 = 0.0495 | 300.57
293.9 K, w2 = 0.00482 | 243.2
294.65 K, w2 = 0.0169 | 274.42
295.05 K, w2 = 0.00482 | 246.53
295.98 K, w2 = 0.00482 | 245.88
296.3 K, w2 = 0.0051 | 249.8
296.46 K, w2 = 0.0495 | 310.98
298.06 K, w2 = 0.00482 | 248.83
298.89 K, w2 = 0.0051 | 253.84
299.11 K, w2 = 0.0495 | 321.36
299.76 K, w2 = 0.0169 | 289.83
300.14 K, w2 = 0.00482 | 252.27
301.49 K, w2 = 0.0051 | 258.28
301.7 K, w2 = 0.0495 | 332.6
303.76 K, w2 = 0.00482 | 260.04
304.07 K, w2 = 0.0051 | 263.07
304.21 K, w2 = 0.0495 | 344.68
306.66 K, w2 = 0.0051 | 268.79
306.66 K, w2 = 0.0495 | 358.21
309.04 K, w2 = 0.0495 | 371.9
309.23 K, w2 = 0.0051 | 274.95
311.81 K, w2 = 0.0051 | 281.91
314.38 K, w2 = 0.0051 | 289.81

101 kPa, Liquid
Settings | molar heat capacity at constant pressure [J/K/mol]
258.42 K, w2 = 0.0495 | 201.89
260.51 K, w2 = 0.0495 | 202.44
262.59 K, w2 = 0.0495 | 203.15
264.68 K, w2 = 0.0495 | 203.66
266.76 K, w2 = 0.0495 | 204.28
268.85 K, w2 = 0.0495 | 204.83
271.36 K, w2 = 0.0495 | 205.69
274.29 K, w2 = 0.0495 | 206.48
277.23 K, w2 = 0.0495 | 207.26
280.16 K, w2 = 0.0495 | 208.13
283.1 K, w2 = 0.0495 | 209.06
286.03 K, w2 = 0.0495 | 209.95
288.97 K, w2 = 0.0495 | 210.91
291.91 K, w2 = 0.0495 | 211.72
294.84 K, w2 = 0.0495 | 212.72
297.78 K, w2 = 0.0495 | 213.47
300.72 K, w2 = 0.0495 | 214.41
303.65 K, w2 = 0.0495 | 215.41
306.59 K, w2 = 0.0495 | 216.44
309.53 K, w2 = 0.0495 | 217.39
312.47 K, w2 = 0.0495 | 218.35
315.41 K, w2 = 0.0495 | 219.31
321.27 K, w2 = 0.0495 | 221.21
330.56 K, w2 = 0.0495 | 224.12
333.86 K, w2 = 0.0495 | 225.96
337.13 K, w2 = 0.0495 | 227.18
340.39 K, w2 = 0.0495 | 228.38
343.64 K, w2 = 0.0495 | 229.51
346.87 K, w2 = 0.0495 | 230.63
350.08 K, w2 = 0.0495 | 232.05
352.35 K, w2 = 0.0169 | 289.81
353.26 K, w2 = 0.0495 | 232.65
355.87 K, w2 = 0.0051 | 320.97
356.41 K, w2 = 0.0495 | 233.93
357.85 K, w2 = 0.00482 | 320.3
358.14 K, w2 = 0.0169 | 293.37
358.58 K, w2 = 0.0051 | 322.63
361.53 K, w2 = 0.0495 | 236.39
363.43 K, w2 = 0.0169 | 295.6
364.71 K, w2 = 0.0495 | 237.6
367.1 K, w2 = 0.00482 | 323.63
367.89 K, w2 = 0.0495 | 238.53
